Test results taken from article PMC10374545, “A small molecule inhibitor of PTP1B and PTPN2 enhances T cell anti-tumor immunity” (Nature Communications, 2023).
Where “and” joins values, the source holds several entries; their conditions need not be identical. Equal values may be shown once.

Assays:
[1] = system: STAT-5 Y694 phosphorylation in CD8+ OT-I cells; assay: Basal and IL-2-induced STAT-5 Y694 phosphorylation in activated OT-I cells; type: cell-based, mouse; details: for p-STAT-5 MFI, single replicates: 1 μM, IL-2 5 ng/ml, Fig. 2F raw data, listed as CMP-182; for p-STAT-5, group mean (Mean 2): IL-2 5 ng, N 6
Protocol: For assessing IL-2-induced STAT-5 Y694 phosphorylation (p-STAT-5) in activated OT-I cells, single cell suspension of OT-I cells from the lymph nodes of OT-I;Ptpn2^fl/fl mice were stimulated with 1 nM […] (N4) for 16 h. […] Reactions were terminated by washing the cells with ice-cold PBS and then stained with fixable viable dye and fluorophore-conjugated antibodies to CD8 on ice for 15 min. Cells were then washed and fixed with 4% (w/w) paraformaldehyde (BD Cytofix™Fixation Buffer) at room temperature for 30 min and permeabilised with 90% (v/v) methanol at −20 °C for 30 min. Permeabilised cells were incubated with a rabbit antibody specific for p-STAT-5 (p-STAT-5; D47E7, Cell Signaling Technology) for 60 min at room temperature, washed thrice with PBS and then stained with goat anti-rabbit IgG (H + L) F(ab’)2 fragment conjugated to Alexa Fluor 647 (Jackson ImmunoResearch Labs; West Grove, PA) to monitor for p-STAT-5 in CD8^+ OT-I cells by flow cytometry.

[2] = system: STAT-1 target genes in AT3-OVA tumors; assay: qPCR of STAT-1 target genes in AT3-OVA tumors; type: in vivo, mouse; parameters: key: relative expression by comparative Ct (ΔΔCt), normalized to Rps18 or Gapdh; details: tumour gene expression, Lck-Cre;Ptpn2flfl+CMP-182, individual mice (Figure 7F)
Protocol: For quantitative real-time PCR analysis, RNA from tumors was isolated using RNAzol (Sigma-Aldrich, St. Louis, MO), and RNA quality was assessed using a NanoDrop 2000 (Thermo Fisher Scientific, Waltham MA). mRNA was reverse-transcribed using the High-Capacity cDNA Reverse Transcription Kit (Applied Biosystems, Thermo Fisher Scientific, Waltham, MA) and processed for quantitative Real-Time PCR using the Fast SYBR Green Master Mix (Applied Biosystems, Thermo Fisher Scientific, Waltham MA) and PrimePCR™ SYBR Green Assays (Bio-Rad, Hercules, CA) for Cxcl9 (qMmuCID0023784), Cxcl10 (qMmuCED0049500), Tapbp (qMmuCEP0035035), Tap1 (qMmuCEP0057739), […], H2ab1 (qMmuCIP0029038), Cd274 (qMmuCED0044192), H2k1 (qMmuCEP0034842), Tnf (qMmuCED0004141) and Ifng (qMmuCID0006268). Relative gene expression was determined by normalization to the house-keeping gene Rps18 (qMmuCED0045430) or Gapdh (qMmuCED0027497). Gene quantification was performed with the comparative Ct (ΔΔCt) method.

AT3 mammary tumors = assay: AT3 tumor growth in Lck-Cre;Ptpn2fl/fl mice; type: in vivo, mouse; parameters: key to Tumour growth: tumour size in mm^2 (two-dimensional caliper measurement); Tumour weights / Tumour weights (mean): unit not given here; details: for Tumour size (mean): CMP-182 in LCK-CRE-PTPN2 mice (Group C), in mm2; for Tumour growth: individual mice (Figure 8D)
Protocol: Male or female mice were injected subcutaneously with 5 × 10^5 MC38 tumor cells resuspended in 100 μl D-PBS into the flank. Alternatively, female mice were injected orthotopically with 5 × 10^5 AT3 or AT3-OVA or PTPN2-deleted AT3 or AT3-OVA tumor cells resuspended in 20 μl D-PBS into the fourth mammary fat pad. Tumor sizes were measured in two dimensions (mm^2) using electronic callipers two to three times per week as soon as tumors were palpable (20–25 mm^2).

[3] = Serum anti-nuclear antibodies (ANA) ELISA; type: in vivo, mouse
Text: CD3ε (BD Biosciences Cat# 553058) and CD28 (BD Biosciences Cat# 557393) antibodies for T cell stimulation and NK1.1 (BD Biosciences Cat# 564143) antibody for NK cell stimulation were purchased from BD Biosciences. Ly49H (clone 3D10, BioLegend Cat# 144702) antibody for NK stimulation was from BioLegend. For analyzing T cell signaling, p-(Y418) SFK (Thermo Fisher Scientific Cat# 14-9034-82) was from Invitrogen and p-(Y694) STAT-5 (D47E7) XP® (Cell Signaling Technology Cat# 4322) was from Cell Signaling. Recombinant human IL-2, recombinant murine IL-7 and recombinant human IL-15 were purchased from the PeproTech, recombinant mouse IL-12 and recombinant human IL-18 were from Australia Biosearch and […] (N4) from Mimotopes. InVivoMAb anti-mouse PD-1 (Bio X Cell Cat# BE0146) and InVivoMAb rat IgG2a isotype control (Bio X Cell Cat# BE0251) were purchased from Bio X Cell. DNase I was from Sigma-Aldrich. Rabbit monoclonal PTP1B (Abcam Cat# ab244207) antibody for flow cytometry was from Abcam and mouse monoclonal PTPN2 6F3 antibody for immunoblotting and flow cytometry was from MédiMabs (Cat# MM-019-P). Mouse anti-actin (Thermo Fisher Scientific Cat# MA5-11866) from Invitrogen and mouse α-tubulin (Sigma-Aldrich Cat# T5168) was from Merck. The mouse anti-nuclear antibodies Ig’s (total IgA+G + M) ELISA Kit was from Alpha Diagnostic Int. and the Transaminase II Kit from Wako Pure Chemicals. FBS was purchased from Thermo Scientific, RPMI 1640, DMEM, MEM, HEPES, non-essential amino acids, penicillin/streptomycin, and sodium-pyruvate were from Invitrogen, collagenase type IV was purchased from Worthington Biochemical and ABBV-CLS-484 was from MedChemExpress (Cat# HY-145923).

SMILES: CC(C)(O)CCOc1ccc2cc(O)c(N3CC(=O)NS3(=O)=O)c(F)c2c1 [Compound 182, 5-(1-Fluoro-3-hydroxy-7-(3-hydroxy-3-methylbutoxy)naphthalen-2-yl)−1,2,5-thiadiazolidin-3-one 1,1-dioxide]
- p-STAT-5 MFI, single replicates ([1]; time 0): 5942 and 5539 and 8398 and 8753 and 4540 and 4913
- p-STAT-5 MFI, single replicates ([1]; time 5): 14341 and 15725 and 15901 and 18555 and 14928 and 16788
- p-STAT-5 MFI, single replicates ([1]; time 15): 16676 and 18523 and 19580 and 20940 and 16523 and 19213
- p-STAT-5 MFI, single replicates ([1]; time 30): 16027 and 18696 and 19133 and 19342 and 15170 and 18785
- p-STAT-5 MFI, single replicates ([1]; time 60): 13163 and 13881 and 14770 and 14670 and 10937 and 14331
- p-STAT-5 MFI, single replicates ([1]; time 120): 10820 and 12152 and 10493 and 12920 and 10327 and 12862
- basal and IL-2-induced STAT-5 Y694 phosphorylation (p-STAT-5) ([1]; CD8+ T cells): enhanced
- p-STAT-5, column mean ([1]; CD8, IL-2 5 ng, mean over all times, two-way ANOVA, Fig. 2F): 14007
- p-STAT-5, group mean (Mean 2) ([1]; Row 1 (time 0), Fig. 2F): 6348
- p-STAT-5, group mean (Mean 2) ([1]; Row 2 (time 5), Fig. 2F): 16040
- p-STAT-5, group mean (Mean 2) ([1]; Row 3 (time 15), Fig. 2F): 18576
- p-STAT-5, group mean (Mean 2) ([1]; Row 4 (time 30), Fig. 2F): 17859
- p-STAT-5, group mean (Mean 2) ([1]; Row 5 (time 60), Fig. 2F): 13625
- p-STAT-5, group mean (Mean 2) ([1]; Row 6 (time 120), Fig. 2F): 11596
- pSTAT5, single replicates ([1]; N4 1 nM 16 h, then 1 μM 1 h, no IL-2, Fig. 2E raw data, listed as WT+I): 60.1 and 62.9 and 57.6 and 60.3
- pSTAT5%, mean of differences (B - A) ([1]; WT+I vs. WT, 4 pairs, Fig. 2E): 12.98
- H2-Ab1 [2]: 1.37 and 2.449 and 1.819 and 1.855 and 0.6743 and 0.4848
- IFNg [2]: 2.663 and 2.871 and 3.337 and 2.746 and 0.6434 and 0.3583
- cd274 [2]: 1.409 and 1.249 and 1.434 and 1.371 and 1.147 and 0.5391
- cxcl9 [2]: 1.651 and 1.828 and 1.511 and 1.806 and 0.4356 and 0.3111
- cxcl10 [2]: 1.078 and 1.3193 and 1.359 and 1.098 and 0.6504 and 0.3928
- AT3 tumor growth in Lck-Cre;Ptpn2fl/fl mice (AT3 mammary tumors; 10 mg/kg i.v., beyond PTPN2 deletion in T cells): further suppressed tumor growth
- eradication of AT3 tumors in Lck-Cre;Ptpn2fl/fl mice (AT3 mammary tumors; 10 mg/kg i.v., tumors eradicated/total): 3/6
- Tumour weights (mean) (AT3 mammary tumors; AT-3 tumours, CMP-182 in LCK-CRE-PTPN2 mice): 7
- Tumour size (mean) (AT3 mammary tumors; AT-3 tumours, time point 7): 19.03
- Tumour size (mean) (AT3 mammary tumors; AT-3 tumours, time point 10): 21.39
- Tumour size (mean) (AT3 mammary tumors; AT-3 tumours, time point 12): 20.59
- Tumour size (mean) (AT3 mammary tumors; AT-3 tumours, time point 14): 19.84
- Tumour size (mean) (AT3 mammary tumors; AT-3 tumours, time point 16): 13.84
- Tumour size (mean) (AT3 mammary tumors; AT-3 tumours, time point 19): 12.75
- Tumour size (mean) (AT3 mammary tumors; AT-3 tumours, time point 21): 13.01
- Tumour size (mean) (AT3 mammary tumors; AT-3 tumours, time point 23): 11.77
- Tumour weights, median (AT3 mammary tumors; AT-3 tumours, CMP-182 in LCK-CRE-PTPN2 mice, n=6): 7.500, n=6
- Tumour growth (AT3 mammary tumors; AT-3 tumours, LCK-CRE-PTPN2 mice n=6, day 7 post injection, listed as CMP-182): 13.566 (2×) and 20.8844 (2×) and 21.6987 (2×) and 6.7144 (2×) and 16.1674 (2×) and 35.1652 (2×)
- Tumour growth (AT3 mammary tumors; AT-3 tumours, LCK-CRE-PTPN2 mice n=6, day 10 post injection, listed as CMP-182): 12.25 (2×) and 27.03 (2×) and 24 (2×) and 10.5 (2×) and 18.4 (2×) and 36.18 (2×)
- Tumour growth (AT3 mammary tumors; AT-3 tumours, LCK-CRE-PTPN2 mice n=6, day 12 post injection, listed as CMP-182): 9 (2×) and 29.15 (2×) and 22.5 (2×) and 12.6 (2×) and 15.2 (2×) and 35.1 (2×)
- Tumour growth (AT3 mammary tumors; AT-3 tumours, LCK-CRE-PTPN2 mice n=6, day 14 post injection, listed as CMP-182): 9 (2×) and 25.92 (2×) and 22.5 (2×) and 13.32 (2×) and 14.35 (2×) and 33.92 (2×)
- Tumour growth (AT3 mammary tumors; AT-3 tumours, LCK-CRE-PTPN2 mice n=6, day 16 post injection, listed as CMP-182): 0 (4×) and 24.48 (2×) and 22.95 (2×) and 7.5 (2×) and 28.08 (2×)
- Tumour growth (AT3 mammary tumors; AT-3 tumours, LCK-CRE-PTPN2 mice n=6, day 19 post injection, listed as CMP-182): 0 (4×) and 22.55 (2×) and 22.95 (2×) and 4 (2×) and 27 (2×)
- Tumour growth (AT3 mammary tumors; AT-3 tumours, LCK-CRE-PTPN2 mice n=6, day 21 post injection, listed as CMP-182): 0 (4×) and 27.56 (2×) and 22.5 (2×) and 4 (2×) and 24 (2×)
- Tumour growth (AT3 mammary tumors; AT-3 tumours, LCK-CRE-PTPN2 mice n=6, day 23 post injection, listed as CMP-182): 0 (4×) and 25 (2×) and 22.54 (2×) and 1 (2×) and 22.08 (2×)
- Tumour weights (AT3 mammary tumors; AT-3 tumours, LCK-CRE-PTPN2 mice n=6, individual mice (Figure 8D), listed as CMP-182): 0 and 12 and 10 and 5 and 15
- serum anti-nuclear antibodies (ANA) ([3]; 10 mg/kg i.v.): unaltered
- Serum ANA ([3]; Figure 10C, individual mice, listed as CMP-182): 77.3077 and 275 and 43.4615 and 42.6923 and 47.3077 and 142.692 and 64.2308
- ANA Serum, median ([3]; Figure 10C, median, n=8): 70.77, n=8
